Source: article PMC4684281, “Antitumor Effects and Mechanism of Novel Emodin Rhamnoside Derivatives against Human Cancer Cells In Vitro” (PLoS ONE, 2015)
Read-outs that look alike come from different tables or passages of the source.

Tests used:
Type in all cases: cell-based, Human
[1] = test system: HepG2 mitochondrial membrane potential (ΔΨm); experiment: Mitochondrial membrane potential (Rhodamine123, flow cytometry); details: HepG2, 5.0μM
Protocol: HepG2 cells were inoculated in 10cm diameter culture plates at a density of 5×10^5 cells, and allowed to attach at 37°C for 24 hours. Afterwards, cells were treated with 5.0μM EM-d-Rha for 0, 24h, 48h and 72h respectively. Cells were incubated in a humidified incubator supplied with 5% CO2 at 37°C for 72 hours. Medium were exchanged once every 24 hours. The harvested cells of each sample were suspended in 500μL PBS before adding 5 μL Rhodamine123. Then samples were incubated at 37°C in the dark for 15 min. Cells were again collected by centrifugation at 300×g for 5 minutes and the supernatant was discarded. The cell pellets were washed twice with 4°C PBS. Finally cells of all samples were resuspended in 500μL PBS. Before performing assay, adjusting excitation wavelength and emission wavelength to 480nm, 520nm respectively, the ΔΨm changes of HepG2 mitochondrial were measured with a flow cytometer (BD FACSCalibur, BD Biosciences, US). The experiment was repeated at least three times.

HepG2 cells = experiment: Morphological analysis (bright-field microscopy); details: HepG2, 0.1-62.5μM, 48 h, dose dependent
Protocol: For morphological observation, HepG2 cells in logarithmic growth phase were seeded in a 96-well plate at the density of 1×10^4/well with 0.2 mL complete medium containing 10% fetal calf serum. Cells were allowed to attach at 37°C for 24 hours. Then cells were treated with EM-d-Rha and HCPT at a specific concentration. Each group has six parallel wells. […] Medium were exchanged once every 24 hours.

HeLa cells = experiment: MTT cell viability assay, HeLa
Protocol: The viability of cancer cells was evaluated by MTT assay. Briefly, cells were inoculated in 96-well culture plates at the density of 1×10^4/well with complete medium containing 10% fetal calf serum in a final volume of 0.2 mL. Cells were incubated at 37°C for at least 24 hours to allow optimal attachment. When the cells reached 60% confluence, they were treated with Cisplatin, HCPT and emodin rhamnopyranosides derivatives in various concentrations, and incubated in a humidity-controlled 5%CO2 incubator at 37°C for 72 hours. Medium were exchanged once every 24 hours. Cell control group and blank group were set up in the same manner, with each group having six parallel wells. Cell survival was assessed by directly adding 22 μL of 5mg/mL MTT to 0.2 mL medium. After three hours, the formazan precipitate was dissolved in 200μL isopropanol per well, and completely mixed under room temperature. Afterwards, the optical density of each well was detected at 570 nm wavelength by iMark microplate reader (Bio-rad,USA). This experiment was repeated at least three times.

[2] = test system: Caspase-3 gene expression of HepG2 cells; experiment: RT-qPCR gene expression, Caspase-3; details: 48 hours, control 1.022±0.258
Protocol: HepG2 cells were inoculated in 6-well culture plates at a density of 3×10^5 cells/well, and allowed to attach at 37°C for 24 hours. Then cells were treated with specific concentrations of EM-d-Rha and incubated in a humidified incubator supplied with 5% CO2 at 37°C for 48 hours. Medium were changed once every 24 hours. Afterwards, mRNA was extracted from every group using E.Z.N.A.^TM Total RNA Kit II according to the manufacturer’s instructions. The extracted mRNA was dissolved in 20 μL ddH2O (Qiagen) containing diethyl pyrocarbonate (DEPC). The concentration of mRNA was quantified with a NanoDrop ND-100 device (Thermo Fisher Scientific). cDNA was synthesized using 3μg of the extracted mRNA from each sample with PCR system (BIO-RAD,USA). The cDNA synthesis reaction was prepared according to the manufacturer’s instructions by mixing 3μg mRNA, 4.0μL 5× MMLV buffer, 3 μL oligodT18, 0.5μL 10 mM dNTP solution, 0.8μL RNase inhibitor, 3.7μL MMLV Rtase, and 6.0μL DEPC ddH2O in PCR tubes. The reaction condition was 5min at 70°C, 60 min at 42°C and 10min at 4°C. The products were used for subsequent RT-qPCR analysis. The level of mRNA expression was measured by RT-qPCR using a CFX96^TM C1000 Real-Time PCR System (BIO-RAD, USA).The primers were designed using idt.dna software system (http //www.idtdna.com). The specific primers were: Cyto C: 5′-[…]-3′ (forward), 5′- […] -3′ (reverse); Caspase 3: 5′- CCTACAGCCCATTTC TCCATAC-3′ (forward), 5′-[…]-′ (reverse); β-actin: 5′-[…]-3′ (forward), 5′-[…]-3′ (reverse). The product sizes of Cyto C, Caspase 3 and β-actin were 91bp, 125bp and 107bp, respectively. […]
Master Mix (Promega), 0.3μL of each primer (10μM), and 1.0 μL cDNA template. […] Each sample was analyzed in quadruplicate and mean was used for further analysis. The mRNA expression levels of each sample were quantified by measuring the threshold cycle (CT) values of genes. The relative values of the target gene expression were calculated according to CT values of the target genes and the reference gene (β-actin) by applying Livak and Schmittgen method. […]

**Q.** Which results are given for `CC(=O)O[C@@H]1[C@@H](O[C@@H]2O[C@@H](C)[C@H](O)[C@@H](OC(C)=O)[C@H]2OC(C)=O)[C@H](C)O[C@@H](Oc2cc(O)c3c(c2)C(=O)c2cc(C)cc(O)c2C3=O)[C@@H]1OC(C)=O` [S-8, 3-(2”,3”-Di-O-acetyl-α-L-rhamnopyranosyl-(1→4)-2’,3’-di-O-acetyl-α-L-rhamnopyranosyl)-emodin]?
**A.** Percentage of ΔΨm (Vs. control group) ([1]; 24 h): 82.22±5.97 %; Percentage of ΔΨm (Vs. control group) ([1]; 48 h): 53.21±9.71 %; Percentage of ΔΨm (Vs. control group) ([1]; 72 h, listed as EM-d-Rha): 31.77±2.84%; Cell morphology (bright-field) (HepG2 cells): morphological changes of apoptosis such as reduction in cell volume and losing cell-cell contacts; IC50 (HeLa cells; Homo sapiens, HeLa, MTT at 72h, n=3, mean±S.E.M, read-out: IC50 for EM-d-Rha, HeLa): 1.51 ± 0.31 µM; IC50 (HeLa cells; Homo sapiens, HeLa, MTT, 72 hours, read-out: IC50 values, HeLa): 1.15 µg/mL; inhibition at 0.1 µM (HeLa cells; Homo sapiens, HeLa, 0.1μM, MTT 72h, read-out: The inhibition rate of EM-d-Rha): 14.8 ± 5.61%; inhibition at 0.5 µM (HeLa cells; Homo sapiens, HeLa, 0.5μM, MTT 72h, read-out: The inhibition rate of EM-d-Rha): 37.6 ± 2.81%; inhibition at 2.5 µM (HeLa cells; Homo sapiens, HeLa, 2.5μM, MTT 72h, read-out: The inhibition rate of EM-d-Rha): 49.2 ± 3.78%; inhibition at 12.5 µM (HeLa cells; Homo sapiens, HeLa, 12.5μM, MTT 72h, read-out: The inhibition rate of EM-d-Rha): 69.1 ± 3.36%; inhibition at 62.5 µM (HeLa cells; Homo sapiens, HeLa, 62.5μM, MTT 72h, read-out: The inhibition rate of EM-d-Rha): 89.74 ± 0.63%; Decrease of IC50 compared to the IC50 of emodin, HeLa (HeLa cells; from Table 1): 10.56 fold; Caspase-3 mRNA expression level relative to controls ([2]; HepG2, 0.70μM): 0.949±0.259 fold; Caspase-3 mRNA expression level relative to controls ([2]; HepG2, 1.40μM): 0.900±0.190 fold; Caspase-3 mRNA expression level relative to controls ([2]; HepG2, 5.60μM): 4.413±3.730 fold
